{"source": "patent US20240156790A1", "about": "“COMPOUNDS, COMPOSITIONS, AND METHODS FOR MODULATING FERROPTOSIS AND TREATING EXCITOTOXIC DISORDERS” (THE TRUSTEES OF COLUMBIA UNIVERSITY IN THE CITY OF NEW YORK, priority 2018, published 2024)", "key": {"[1]": {"conditions": "Human; value marked ^1, Hofmans et al., 2016; cited from earlier work"}, "[2]": {"system": "renal tubular ferroptosis", "assay": "Renal tubular ferroptosis model triggered by ferric nitrilotriacetate (Fe-NTA)", "assay_type": "in vivo, Sprague-Dawley rat", "description": "Fe(NO3)3·12H2O (Wako, Osaka, Japan) and nitrilotriacetic acid disodium salt (Tokyo Chemical Industry, Tokyo, Japan) were dissolved in deionized water to generate 300 mM and 600 mM solutions, respectively, which were mixed immediately before injections by a ratio of 1:2 (v/v) and then adjusted to pH 7.4 with sodium carbonate to make Fe-NTA solution. PHB4082 was dissolved in 5% DMSO/95% of 65% v/v of 25% w/v 2-hydroxypropyl-β-cyclodextrin (Cayman Chemical) dissolved in 20% EtOH, 30% v/v Poly(ethylene glycol)-400 (Sigma Aldrich 202398), 5% v/v Tween 80 (Fluka 59924) to generate 2 mg/mL solution. The same formulation without PHB4082 was used as vehicle control. For both the solutions ultrasonic disruptor was applied to accelerate the dissolution and they are stored at −20° C. up to one week before injections.\nMale wild-type Sprague-Dawley rat (CLEA Japan, Tokyo; n=6 for vehicle control, n=7 for PHB4082 pretreatment) at 4-6 weeks of age were fasted for 12 h prior to intraperitoneal administration of 2 mg/ml PHB4082 solution as pretreatment or with the formulation without PHB4082 as vehicle control. Two hours later all the rats were followed by IP injection of Fe-NTA with a dose of 10 mg iron/kg. The rats were euthanized 24 h after Fe-NTA injection. Fresh kidney tissues were excised and were either fixed in 10% phosphate-buffered formalin or preserved at −80° C. for subsequent analysis. The animal experiment committee of Nagoya University Graduate School of Medicine approved the animal experiments.\nImmunostainings were performed by BOND MAX/III (Leica, Wetzlar, Germany) with BOND Polymer Refine Detection (ds9800; Leica) as described. Primary antibodies applied were listed as: anti-4-hydroxy-2-nonenal (HNE) modified proteins antibody (anit-HNEJ-1, in house), anti-transferrin receptor antibody (13-6800, Invitrogen). Quantitation of renal tubular ferroptosis was performed by measuring the necrotized cortical area after H&E staining by identifying the area of necrotized tubules with loss of nuclei. ImageJ was used for quantification of % necrosis area with randomly selected microscopic areas (×20, objective lens; n=9).\nWe evaluated the ferroptosis protection effect of PHB4082 in a renal tubular ferroptosis model. This model was previously established by Toyokuni lab (Kong et al. 2022; Toyokuni et al. 2022; Akatsuka et al. 2012). A Fenton-reaction based renal carcinogenesis in this model results from repeated intraperitoneal injections of ferric nitrilotriacetate (Fe-NTA). This iron chelate could specifically induce proximal epithelial ferroptosis via single IP administration. […] We chose 24 h after Fe-NTA administration for evaluation of the effects of PHB4082 because this is the peak time for renal tubular necrosis."}, "[3]": {"assay": "In vivo pharmacokinetic study of TH-4-55-2 in drinking water (four days)", "design": "species or system R6/2 mice", "conditions": "both sexes, R6/2, mouse, brain, oral, 20-30 mg/kg/day, 4-day treatment, read-out: concentration in brain samples", "description": "TH-4-55-2 and 42 uM Citric acid were dissolved in 5% DMSO, 5% ethanol, and 90% PBS rendering a final concentration of 0.29 mg/mL Th-4-55-2 in drinking water. The mice drink ˜2 mL water per day, and the resulting dosage was around 20-30 mg/kg/day. C57BL/6 mice at ˜8 weeks of age were treated using drinking water daily for four days. 6 mice were randomly picked, weighed daily, the weight recorded, and the change in body weight compared to the baseline, pre-injection weight was calculated. Any mouse that lost more than 20% of its baseline body weight for three consecutive days was euthanized prior to the completion of the study. Mice were euthanized by CO2 asphyxiation for 3 min after administration. Approximately 0.5 mL of blood was collected via cardiac puncture and immediately put in K3 EDTA microtubes and kept on ice. Brains were harvested, placed in Eppendorf tubes, and frozen on dry ice. […]\nPrior to LC-MS analysis, the samples were resuspended in 100 μL methanol and centrifuged for 5 minutes at 14,000×g at 4° C. The supernatant was analyzed via SYNAPT High Resolution Mass Spectrometer.\nSamples from animal studies were analyzed via UPLC-MS using a Waters SYNAPT XS Mass spectrometer equipped with an Acquity UPLC. […] All samples were injected twice and the base peak chromatogram was integrated and quantified by a standard curve concurrently ran using MassLynx software and exported. […]"}}, "note": "“Also recorded” adds a separate entry of the source.", "data": [{"compound": "CCOC(=O)c1ccc(NC2CCCCC2)c(N)c1", "note": "[Fer-1, Ferrostatin-1, reference compound]", "values": [{"measurement": "Microsomal Stability t1/2", "setting": "[1]", "result": "6.9 ± 0.2", "unit": "min"}]}, {"compound": "Cc1noc(-c2ccc(NC3CCCCC3)c(NC3CCCCC3)c2)n1", "note": "[PHB4082, N1,N2-dicyclohexyl-4-(3-methyl-1,2,4-oxadiazol-5-yl)benzene-1,2-diamine]", "values": [{"measurement": "HNE adducts in proximal tubules (HNEJ-1 immunostaining)", "setting": "[2]; 24 h after Fe-NTA", "result": "less amounts of HNE adducts"}, {"measurement": "TfR1 / TRF1/CD71 signals in proximal tubules", "setting": "[2]; 24 h after Fe-NTA", "result": "low to moderate signals in the proximal tubules; also recorded: less signals for TRF1/CD71"}, {"measurement": "necrotized renal tubular area", "setting": "[2]; 24 h after Fe-NTA", "result": "dramatically reduced the necrotized renal tubular area"}, {"measurement": "survival 24 h after Fe-NTA administration", "setting": "[2]; IP pretreatment 2 h before Fe-NTA 10 mg iron/kg", "result": "all of those with PHB4082 pretreatment survived 24 hrs"}]}, {"compound": "CCC(CC)Nc1cc(-c2nc(C)no2)cnc1NC1CCCCC1", "note": "[TH-4-55-2, N^2-cyclohexyl-5-(3-methyl-1,2,4-oxadiazol-5-yl)-N^3-(pentan-3-yl)pyridine-2,3-diamine]", "values": [{"measurement": "concentration at 4 days", "setting": "[3]", "result": "1.5 to 33", "unit": "µM"}]}]}
